Converted amounts (≈) assume the structure as drawn. Where two headings read alike, the source gives them in different places.
What was measured:
[1] = target: T1, tyrosinase originating from B16 melanoma (Mus musculus, UniProt P11344); assay: Inhibitory activity to tyrosinase originating from B16 melanoma; assay type: biochemical; conditions: crude enzyme solution, L-dopa substrate, pH 6.8, 25° C., two hours
T1 construct: The supernatant liquid was collected and preserved in ice until the time it was used (crude enzyme solution); endogenous in cells; host or cells: B16 melanoma cells, homogenate supernatant (crude enzyme solution)
T1 sequence (P11344 19-533): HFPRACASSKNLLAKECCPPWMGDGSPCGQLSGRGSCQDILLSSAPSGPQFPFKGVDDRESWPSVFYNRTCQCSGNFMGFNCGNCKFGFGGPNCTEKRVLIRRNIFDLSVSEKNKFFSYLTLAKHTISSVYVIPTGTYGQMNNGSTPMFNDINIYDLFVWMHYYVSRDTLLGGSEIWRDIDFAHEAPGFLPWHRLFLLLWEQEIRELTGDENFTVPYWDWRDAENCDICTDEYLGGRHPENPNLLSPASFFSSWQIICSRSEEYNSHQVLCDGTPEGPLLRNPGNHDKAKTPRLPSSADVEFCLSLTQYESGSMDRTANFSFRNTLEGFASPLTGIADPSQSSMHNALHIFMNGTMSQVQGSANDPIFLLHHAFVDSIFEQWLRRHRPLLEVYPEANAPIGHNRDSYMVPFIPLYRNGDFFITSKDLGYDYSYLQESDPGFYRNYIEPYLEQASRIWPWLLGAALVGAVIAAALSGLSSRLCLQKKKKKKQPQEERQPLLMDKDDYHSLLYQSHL
Procedure: Inhibitory Activity to Tyrosinase Originating from B16 Melanoma
(§1) About 2.0×10^5/ampoule B16 melanoma cell strain preserved in a frozen state in liquid nitrogen was dissolved in a water bath at 37° C. and immediately suspended in 10 ml of a culture medium. After centrifugation at 800 rpm for five minutes, the supernatant liquid was discarded and the cells were suspended in 10 ml of a fresh culture medium. The suspension was again centrifuged under the same conditions, the supernatant liquid was discarded, and the cells were again suspended in a fresh culture medium.
About 4.0×10^5 cells were seeded in a 75 cm^2 flask. The cells were cultured at 37° C. in a 5% CO2 atmosphere for one week while replacing the medium every 2–3 days. The culture medium in which the cells have grown to bring the medium into a subconfluent state was discarded. The surface of the cultured cells was washed with PBS(−), following which the cells were stripped using 0.25% trypsin. A medium containing serum was added to terminate the trypsin reaction. After loosening the cells by pipetting, the cell suspension was transferred to a centrifugal tube. […] The number of cells was counted using a cytometer. […]
L-dopa was adjusted to a concentration of 0.8 mg/ml with the 0.05 M phosphate buffer (pH 6.8). […] Then, the absorption at 475 nm was measured.

[2] = test system: melanin pigmentation of skin after exposure to sunlight; assay: Whitening effect on skin of subjects exposed to sunlight; assay type: in vivo, human; conditions: for Whitening effect: applied morning and evening over four weeks, 20 subjects
Procedure: The whitening effect of the compound (I) of the present invention was measured according to the following method. 20 subjects were exposed to sunlight for […] from 11:00 a.m. to 1:00 p.m. over two days in summer. Five days after the exposure to sunlight, a water phase and an alcohol phase having compositions respectively shown in FIG. 5 and FIG. 6 were mixed and dissolved, and the solution was applied to the skin on the medial side of the upper arm of each exposed subject once for every morning and evening over four weeks. [table] [table] After four weeks, the whitening effect was judged for each subject. The effect was judged according to the following standards.

[3] = target: Tyrosinase originating from mushroom; assay: Inhibitory activity to tyrosinase originating from mushroom; assay type: biochemical; conditions: L-dopa substrate, pH 6.8, 25° C., 10 minutes
Procedure: Inhibitory Activity to Tyrosinase Originating from Mushroom Tyrosinase originating from mushroom (Sigma company) was dissolved in a 0.05 M phosphate buffer (pH 6.8) to a concentration of 20 U/ml. L-dopa was adjusted to a concentration of 0.3 mg/ml with a 0.05 M phosphate buffer (pH 6.8). A 96-well plate was charged with 30 μl of the L-dopa solution and 30 μl of solutions of the compound (I) of the present invention at various concentrations, immediately followed by mixing with 30 μl of the tyrosinase solution originating from mushroom. After incubation at 25° C. for 10 minutes, the absorbance at 450 nm was measured using a microplate reader.

[4] = test system: B16 melanoma (B-16/2D2 cells); assay: Inhibitory activity to melanogenesis of B16 melanoma (extracellular and intracellular melanin, amount of proteins); assay type: cell-based; conditions: for IC50: Mus musculus, B16, 120 h
Procedure: Inhibitory Activity to Melanogenesis of B16 Melanoma
as §1
About 4.0×10^5 cells were seeded in a 75 cm^2 flask. The cells were cultured at 37° C. in a 5% CO2 atmosphere for one week while replacing the medium every 2–3 days. The culture medium in which the cells have grown to bring the medium into a subconfluent state was discarded. The surface of the cultured cells was washed with PBS(−), following which the cells were stripped using 0.25% trypsin. A medium containing serum was added to terminate the trypsin reaction. After loosening the cells by pipetting, the cell suspension was transferred to a centrifugal tube. After centrifugation at 800 rpm for five minutes, the supernatant liquid was discarded and the cells were suspended in a fresh culture medium (not containing phenol red). The number of cells was counted using a cytometer.
The cell suspension was diluted with a medium (not containing phenol red) to make the cell concentration 2×10^5 cells/ml. The resulting suspension was seeded in a 96-well plate in an amount of 100 μl/well. The cells were incubated at 37° C. in a 5% CO2 atmosphere for one day. Solutions of the compound (I) of the present invention at various concentrations were prepared in a medium (not containing phenol red). The resulting solutions were added to a 96-well plate in an amount of 100 μl/well. The cells were incubated at 37° C. in a 5% CO2 atmosphere for five days and evaluated according to the following method.
1. Amount of Extracellular Melanin
The culture medium was transferred to an assay plate in an amount of 150 μl/well while taking care so that foam was not produced to measure OD450 using a microplate reader.
2. Amount of Intracellular Melanin
The plate containing the cells was inverted to discard the remaining culture medium. 0.1 N NaOH-0.1% Triton X-100 was added in an amount of 150 μl/well to dissolve the cells by pipetting. The culture medium was transferred to an assay plate in an amount of 100 μl/well to measure OD450 using a microplate reader.
Distilled water was added to the assay plate in an amount of 156 μl/well. Then, 4 μl/well of the cell solution remaining after measuring the amount of intracellular melanin was added. Next, 40 μl/well of a Bio-rad protein assay die solution was added, followed by shaking for two minutes. After allowing to stand for five minutes, OD590 was measured using a microplate reader.

[5] = concentration in which whitening actions were clearly exhibited

Compound | IC50 [1] | Whitening effect ([2]; 0.1 wt % test agent) | Whitening effect ([2]; 0.3 wt % test agent) | Abnormalities of the skin (erythema, edema) or side effects ([2]; topical application over four weeks in subjects) | IC50 Mushroom tyrosinase [3] | IC50 ([4]; read-out: IC50 Extracellular melanogenesis) | IC50 ([4]; read-out: IC50 Intracellular melanogenesis) | IC50 ([4]; read-out: IC50 Protein synthesis) | Effects on the amount of proteins in the cells [4, 5] | Effects on the number of grown cells [4, 5] | Morphological changes in the cells by microscopic inspection [4, 5] | Whitening effect ([2]; 1.0 wt % test agent)
[C-]#[N+]/C=C/c1ccc(O[C@@H]2O[C@@H](C)[C@H](O)[C@@H](O)[C@H]2O)cc1 [Compound (I), (E)-4-(2-isocyanovinyl)phenyl α-L-rhamnopyranoside] | 1.85 nM | Good (50–80% of subjects exhibited a complete response or partial response) | Good (50–80% of subjects exhibited a complete response or partial response) | neither abnormalities of the skin, such as erythema or edema, nor any side effects | 0.0019 µg/mL (≈ 0.00652 µM) | 0.052 µg/mL (≈ 0.179 µM) | 0.074 µg/mL (≈ 0.254 µM) | 0.9 µg/mL (≈ 3.09 µM) | nor were there any effects | nor were there any effects | no morphological changes | –
Oc1ccc(O)cc1 [Hydroquinone, reference compound] | – | – | – | – | – | – | – | – | – | – | – | Good (50–80% of subjects exhibited a complete response or partial response)
O=c1cc(CO)occ1O [Kojic acid, reference compound] | – | – | – | – | – | – | – | – | – | – | – | Fair (30–50% of subjects exhibited a complete response or partial response)

From patent publication US7115721B2, “Microorganism, its product and utilization thereof” (Astellas Pharma Inc., priority 2002, dated 2006)
